Assay results taken from US11458123B2 (Arvinas, Inc., priority 2016, dated 2022).

Tested on: tau protein
Assay: Tau protein in vitro degradation assay (Western blot, Tau-13 antibody)
Type: cell-based, human
Conditions: SK-N-SH cells; 72 hours of incubation; tested at 1000 nM, 300 nM and 100 nM
Description: Tau Protein In Vitro Degradation Assay
To determine effect of PROTACs on tau protein degradation SK-N-SH cells were seeded in a 24-well tissue culture-treated plate for at least 18-hours prior to compound addition. Tau PROTACs were evaluated for tau degradation by lysing the cells in lysis buffer with protease inhibitors following a 72-hour incubation with tau PROTACs at 1000 nM, 300 nM and 100 nM for Table 1 and 300 nM, 100 nM, 33 nM and 11 nM for Table 2. Cell lysates were run on standard SDS-PAGE gels, and tau levels were detected by Western blotting using Tau-13 antibody from Abcam (Cambridge, UK) that binds to all forms of human tau.

| Structure (SMILES) | Activity* (highest amount of degradation observed at any dosage, as tau protein remaining) |
| --- | --- |
| Cc1ncsc1-c1ccc(CNC(=O)[C@@H]2C[C@@H](O)CN2C(=O)[C@@H](NC(=O)COCCOCCOCCOc2ccc3nc(-c4ccc(N(C)C)cc4)ccc3c2)C(C)(C)C)cc1 [Compound 29, (2S,4R)-1-((S)-2-tert-butyl-14-(2-(4-(dimethylamino)phenyl)quinolin-6-yloxy)-4-oxo-6,9,12-trioxa-3-azatetradecane)-4-hydroxy-N-(4-(4-methylthiazol-5-yl)benzyl)pyrrolidine-2-carboxamide] | C (>80% tau protein remaining after 72 hours of incubation with the test compound) |
| Cc1ncsc1-c1ccc([C@H](C)NC(=O)[C@@H]2C[C@@H](O)CN2C(=O)[C@@H](NC(=O)COCCOCCOCCOc2ccc3nc(-c4ccc(N(C)C)cc4)ccc3c2)C(C)(C)C)cc1 [Compound 30, (2S,4R)-1-((S)-2-tert-butyl-14-(2-(4-(dimethylamino)phenyl)quinolin-6-yloxy)-4-oxo-6,9,12-trioxa-3-azatetradecane)-4-hydroxy-N—((S)-1-(4-(4-methylthiazol-5-yl)phenyl)ethyl)pyrrolidine-2-carboxamide] | C (>80% tau protein remaining after 72 hours of incubation with the test compound) |
| Cc1ncsc1-c1ccc(CNC(=O)[C@@H]2C[C@@H](O)CN2C(=O)[C@@H](NC(=O)COCCOCCOCCOCCOc2ccc3nc(-c4ccc(N(C)C)cc4)ccc3c2)C(C)(C)C)cc1 [Compound 31] | C (>80% tau protein remaining after 72 hours of incubation with the test compound) |
| Cc1ncsc1-c1ccc([C@H](C)NC(=O)[C@@H]2C[C@@H](O)CN2C(=O)[C@@H](NC(=O)COCCOCCOCCOCCOc2ccc3nc(-c4ccc(N(C)C)cc4)ccc3c2)C(C)(C)C)cc1 [Compound 32, (2S,4R)-1-((S)-2-tert-butyl-17-(2-(4-(dimethylamino)phenyl)quinolin-6-yloxy)-4-oxo-6,9,12,15-tetraoxa-3-azaheptadecane)-4-hydroxy-N—((S)-1-(4-(4-methylthiazol-5-yl)phenyl)ethyl)pyrrolidine-2-carboxamide] | C (>80% tau protein remaining after 72 hours of incubation with the test compound) |
| Cc1ncsc1-c1ccc(CNC(=O)[C@@H]2C[C@@H](O)CN2C(=O)[C@@H](NC(=O)COCCCCOc2ccc3nc(-c4ccc(N(C)C)cc4)ccc3c2)C(C)(C)C)cc1 [Compound 33, (2S,4R)-1-((S)-2-(2-(4-(2-(4-(dimethylamino)phenyl)quinolin-6-yloxy)butoxy)acetamido)-3,3-dimethylbutanoyl)-4-hydroxy-N-(4-(4-methylthiazol-5-yl)benzyl)pyrrolidine-2-carboxamide] | C (>80% tau protein remaining after 72 hours of incubation with the test compound) |
| Cc1ncsc1-c1ccc([C@H](C)NC(=O)[C@@H]2C[C@@H](O)CN2C(=O)[C@@H](NC(=O)COCCCCOc2ccc3nc(-c4ccc(N(C)C)cc4)ccc3c2)C(C)(C)C)cc1 [Compound 34, (2S,4R)-1-((S)-2-(2-(4-(2-(4-(dimethylamino)phenyl)quinolin-6-yloxy)butoxy)acetamido)-3,3-dimethylbutanoyl)-4-hydroxy-N—((S)-1-(4-(4-methylthiazol-5-yl)phenyl)ethyl)pyrrolidine-2-carboxamide] | C (>80% tau protein remaining after 72 hours of incubation with the test compound) |
| Cc1ncsc1-c1ccc(CNC(=O)[C@@H]2C[C@@H](O)CN2C(=O)[C@@H](NC(=O)COCCCOCCCOc2ccc3nc(-c4ccc(N(C)C)cc4)ccc3c2)C(C)(C)C)cc1 [Compound 35, (2S,4R)-1-((S)-2-(2-(3-(3-(2-(4-(dimethylamino)phenyl)quinolin-6-yloxy)propoxy)propoxy)acetamido)-3,3-dimethylbutanoyl)-4-hydroxy-N-(4-(4-methylthiazol-5-yl)benzyl)pyrrolidine-2-carboxamide] | C (>80% tau protein remaining after 72 hours of incubation with the test compound) |
| Cc1ncsc1-c1ccc([C@H](C)NC(=O)[C@@H]2C[C@@H](O)CN2C(=O)[C@@H](NC(=O)COCCCOCCCOc2ccc3nc(-c4ccc(N(C)C)cc4)ccc3c2)C(C)(C)C)cc1 [Compound 36, (2S,4R)-1-((S)-2-(2-(3-(3-(2-(4-(dimethylamino)phenyl)quinolin-6-yloxy)propoxy)propoxy)acetamido)-3,3-dimethylbutanoyl)-4-hydroxy-N—((S)-1-(4-(4-methylthiazol-5-yl)phenyl)ethyl)pyrrolidine-2-carboxamide] | C (>80% tau protein remaining after 72 hours of incubation with the test compound) |
| Cc1ncsc1-c1ccc(CNC(=O)[C@@H]2C[C@@H](O)CN2C(=O)[C@@H](NC(=O)COCCCCCOc2ccc3nc(-c4ccc(N(C)C)cc4)ccc3c2)C(C)(C)C)cc1 [Compound 37, (2S,4R)-1-((S)-2-(2-(5-(2-(4-(dimethylamino)phenyl)quinolin-6-yloxy)pentyloxy)acetamido)-3,3-dimethylbutanoyl)-4-hydroxy-N-(4-(4-methylthiazol-5-yl)benzyl)pyrrolidine-2-carboxamide] | C (>80% tau protein remaining after 72 hours of incubation with the test compound) |
| Cc1ncsc1-c1ccc([C@H](C)NC(=O)[C@@H]2C[C@@H](O)CN2C(=O)[C@@H](NC(=O)COCCCCCOc2ccc3nc(-c4ccc(N(C)C)cc4)ccc3c2)C(C)(C)C)cc1 [Compound 38, (2S,4R)-1-((S)-2-(2-(5-(2-(4-(dimethylamino)phenyl)quinolin-6-yloxy)pentyloxy)acetamido)-3,3-dimethylbutanoyl)-4-hydroxy-N—((S)-1-(4-(4-methylthiazol-5-yl)phenyl)ethyl)pyrrolidine-2-carboxamide] | C (>80% tau protein remaining after 72 hours of incubation with the test compound) |
| Cc1ncsc1-c1ccc([C@H](C)NC(=O)[C@@H]2C[C@@H](O)CN2C(=O)[C@@H](NC(=O)COCCOCCOCCOCCCOc2ccc3nc(-c4ccc(N(C)C)cc4)ccc3c2)C(C)(C)C)cc1 [Compound 39, (2S,4R)-1-((S)-2-tert-butyl-18-(2-(4-(dimethylamino)phenyl)quinolin-6-yloxy)-4-oxo-6,9,12,15-tetraoxa-3-azaoctadecane)-4-hydroxy-N—((S)-1-(4-(4-methylthiazol-5-yl)phenyl)ethyl)pyrrolidine-2-carboxamide] | C (>80% tau protein remaining after 72 hours of incubation with the test compound) |
| CN(C)c1ccc(-c2ccc3cc(OCCCOCCOCCOCCOCCNc4cccc5c4C(=O)N(C4CCC(=O)NC4=O)C5=O)ccc3n2)cc1 (centres unmarked) [Compound 40, 4-(15-(2-(4-(dimethylamino)phenyl)quinolin-6-yloxy)-3,6,9,12-tetraoxapentadecylamino)-2-(2,6-dioxopiperidin-3-yl)isoindoline-1,3-dione] | C (>80% tau protein remaining after 72 hours of incubation with the test compound) |
| O=C1CCC(N2C(=O)c3cccc(NCCOCCOCCOCC(=O)N4CCN(c5ccn6c(n5)nc5ccccc56)CC4)c3C2=O)C(=O)N1 (centres unmarked) [Compound 41, 4-((2-(2-(2-(2-(4-(benzo[4,5]imidazo[1,2-a]pyrimidin-2-yl)piperazin-1-yl)-2-oxoethoxy)ethoxy)ethoxy)ethyl)amino)-2-(2,6-dioxopiperidin-3-yl)isoindoline-1,3-dione] | C (>80% tau protein remaining after 72 hours of incubation with the test compound) |
| O=C1CCC(N2C(=O)c3cccc(NCCOCCOCCOCCOCC(=O)N4CCN(c5ccn6c(n5)nc5ccccc56)CC4)c3C2=O)C(=O)N1 (centres unmarked) [Compound 42, 4-((14-(4-(benzo[4,5]imidazo[1,2-a]pyrimidin-2-yl)piperazin-1-yl)-14-oxo-3,6,9,12-tetraoxatetradecyl)amino)-2-(2,6-dioxopiperidin-3-yl)isoindoline-1,3-dione] | C (>80% tau protein remaining after 72 hours of incubation with the test compound) |
| Cc1ncsc1-c1ccc(CNC(=O)[C@@H]2C[C@@H](O)CN2C(=O)[C@@H](NC(=O)COCCOCCOCC(O)COc2ccc3nc(-c4ccc(N(C)C)cc4)ccc3c2)C(C)(C)C)cc1 (stereo partly drawn) [Compound 43, (2S,4R)-1-((2S)-2-(tert-butyl)-15-((2-(4-(dimethylamino)phenyl)quinolin-6-yl)oxy)-14-hydroxy-4-oxo-6,9,12-trioxa-3-azapentadecanoyl)-4-hydroxy-N-(4-(4-methylthiazol-5-yl)benzyl)pyrrolidine-2-carboxamide] | C (>80% tau protein remaining after 72 hours of incubation with the test compound) |
| CN(C)c1ccc(-c2ccc3cc(OCCCOCCOCCOCCNc4cccc5c4C(=O)N(C4CCC(=O)NC4=O)C5=O)ccc3n2)cc1 (centres unmarked) [Compound 44, 4-(2-(2-(2-(3-(2-(4-(dimethylamino)phenyl)quinolin-6-yloxy)propoxy)ethoxy)ethoxy)ethylamino)-2-(2,6-dioxopiperidin-3-yl)isoindoline-1,3-dione] | C (>80% tau protein remaining after 72 hours of incubation with the test compound) |
| CN(C)c1ccc(-c2ccc3cc(OCC(O)COCCOCCOCCOCCNc4cccc5c4C(=O)N(C4CCC(=O)NC4=O)C5=O)ccc3n2)cc1 (centres unmarked) [Compound 45, 4-(15-(2-(4-(dimethylamino)phenyl)quinolin-6-yloxy)-14-hydroxy-3,6,9,12-tetraoxapentadecylamino)-2-(2,6-dioxopiperidin-3-yl)isoindoline-1,3-dione] | C (>80% tau protein remaining after 72 hours of incubation with the test compound) |
